15 molecules from patent US12319648B2, “Fluorinated phenylacetic acid derivatives in a weed control method” (SYNGENTA CROP PROTECTION AG, priority 2019, dated 2025) can be followed below.

Holding throughout (type): in vivo
Experiment [1] concerns Echinochloa crus-galli (ECHCG). The experiment can be described thus: Post-emergence herbicidal glasshouse test. The following applies: post-emergence, 250 g/ha, 13 days after application. Here is the method: (§1) Seeds of a variety of test species are shown in standard soil in pots Amaranthus retoflexus (AMARE), Ipomoea hederacea (IPOHE), Solanum nigrum (SOLNI), Lolium perenne (LOLPE). Echinochloa crus-galli (ECHCG), Setaria faberi (SETFA)). After cultivation for one day (pre-emergence) or after 8 days cultivation (post-emergence) under controlled conditions in a glasshouse (at 24/16° C., day/night; 14 hours light; 65% humidity), the plants are sprayed with an aqueous spray solution derived from the formulation of the technical active ingredient in acetone/water (50:50) solution containing 0.5% Tween 20 (polyoxyethylene sorbitan monolaurate, CAS RN 9005-64-5). Compounds are applied at 250 g/ha unless otherwise stated. The test plants are then grown in a glasshouse under controlled conditions in a glasshouse (at 24/16° C., day/night; 14 hours light; 65% humidity) and watered twice daily. After 13 days for pre and post-emergence, the test is evaluated for the percentage damage caused to the plant. The biological activities are shown in the following table on a five-point scale (5=81-100%; 4=61-80%; 3=41-60%; 2=21-40%; 1=0-20%).
(§2) Using the experimental conditions outlined above, a further test is conducted to compare the herbicidal properties of the difluro containing compound (1.014) with a representative compound (C1) referred to in GB901553. The compounds are applied at 1000 g/ha and 500 g/ha. The test is evaluated for the percentage damage caused to the plant (% phytotoxicity).

In experiment [2] the test system is Setaria faberi (SETFA). The experiment can be described thus: Post-emergence herbicidal glasshouse test. The following applies: post-emergence, 250 g/ha, 13 days after application. Here is the method:
as §1, §2

For experiment [3], the system named is Ipomoea hederacea (IPOHE). The experiment is described as follows: Post-emergence herbicidal glasshouse test. The conditions noted are these: post-emergence, 250 g/ha, 13 days after application. Here is the method:
as §1, §2

The subject of a further experiment is Solanum nigrum (SOLNI). The experiment is described as follows: Post-emergence herbicidal glasshouse test. The following applies: post-emergence, 250 g/ha, 13 days after application. The method, then: as §1, §2
The test system of experiment [4] is Lolium perenne (LOLPE). The experiment is described as follows: Post-emergence herbicidal glasshouse test. The following applies: post-emergence, 250 g/ha, 13 days after application. Here is the method: as §1, §2
The test system of experiment [5] is Amaranthus retoflexus (AMARE). The experiment can be described thus: Post-emergence herbicidal glasshouse test. The conditions noted are these: post-emergence, 250 g/ha, 13 days after application. The method, then:
as §1, §2

The test system of experiment [6] is Echinochloa crus-galli (ECHCG). The experiment can be described thus: Pre-emergence herbicidal glasshouse test. The following applies: pre-emergence, 250 g/ha, 13 days after application. Here is the method: as §1, §2
Experiment [7] relates to Setaria faberi (SETFA). The experiment is described as follows: Pre-emergence herbicidal glasshouse test. The conditions noted are these: pre-emergence, 250 g/ha, 13 days after application. The method, then:
as §1, §2

In experiment [8] the test system is Ipomoea hederacea (IPOHE). The experiment is described as follows: Pre-emergence herbicidal glasshouse test. The conditions noted are these: pre-emergence, 250 g/ha, 13 days after application. Here is the method: as §1, §2
The test system of experiment [9] is Lolium perenne (LOLPE). The experiment can be described thus: Pre-emergence herbicidal glasshouse test. The conditions noted are these: pre-emergence, 250 g/ha, 13 days after application. Here is the method:
as §1, §2

For experiment [10], the system named is Amaranthus retoflexus (AMARE). The experiment is described as follows: Pre-emergence herbicidal glasshouse test. The conditions noted are these: pre-emergence, 250 g/ha, 13 days after application. The method, then: as §1, §2

SMILES strings stand for the structures.

On to `O=C(O)C(F)(F)c1cccc(Cl)c1Cl` [Compound 1.034], for which the “percentage damage caused to the plant, five-point scale, ECHCG” value (“percentage damage caused … ECHCG” for short) in experiment [1] and in [6] was 2 (2=21-40%) each time. Moreover, the “percentage damage caused to the plant, five-point scale, SETFA” value (“percentage damage caused … SETFA” for short) in the experiment on Setaria faberi (SETFA) [2] was 3 (3=41-60%); in the experiment on Setaria faberi (SETFA) [7], 1 (1=0-20%). The figures for the “percentage damage caused to the plant, five-point scale, IPOHE” value (“percentage damage caused … IPOHE” for short) in experiment [3] and in experiment [8] were 4 (4=61-80%) and 5 (5=81-100%), respectively. Besides, the “percentage damage caused to the plant, five-point scale, SOLNI” value (“percentage damage caused … SOLNI” below) in the experiment on Solanum nigrum (SOLNI) is recorded as 3 (3=41-60%). The “percentage damage caused to the plant, five-point scale, LOLPE” value (“percentage damage caused … LOLPE” for short) in the experiment on Lolium perenne (LOLPE) [4] is listed as 1 (1=0-20%); with Lolium perenne (LOLPE) [9] it was 2 (2=21-40%). The “percentage damage caused to the plant, five-point scale, AMARE” value (from here on “percentage damage caused … AMARE”) in [5] is given as 5 (5=81-100%).
As to `O=C([O-])C(F)(F)c1cccc(Cl)c1Cl.[Na+]` [Compound 1.038], the “percentage damage caused … ECHCG” value in experiment [1] is 2 (2=21-40%); in experiment [6], 1 (1=0-20%). Besides, the entries for the “percentage damage caused … SETFA” value with Setaria faberi (SETFA) [2] and in the experiment on Setaria faberi (SETFA) [7] were 4 (4=61-80%) and 3 (3=41-60%), respectively. The “percentage damage caused … IPOHE” value in [3] was 4 (4=61-80%); in [8], 5 (5=81-100%). Also, the “percentage damage caused … SOLNI” value with Solanum nigrum (SOLNI) is listed as 4 (4=61-80%). In addition, the figures for the “percentage damage caused … LOLPE” value with Lolium perenne (LOLPE) [4] and in the experiment with Lolium perenne (LOLPE) [9] were 1 (1=0-20%) and 2 (2=21-40%), respectively. Also, in experiment [5], the “percentage damage caused … AMARE” value was 5 (5=81-100%).
As for `O=C(O)C(F)(F)c1cccc(Cl)c1Cl` [Compound 1.041], the “percentage damage caused … ECHCG” value in experiment [1] was 4 (4=61-80%). For the same molecule, the “percentage damage caused … SOLNI” value in the experiment on Solanum nigrum (SOLNI) is given as 4 (4=61-80%). Besides, the “percentage damage caused … LOLPE” value with Lolium perenne (LOLPE) [4] is given as 4 (4=61-80%).
In the case of `O=C([O-])C(F)(F)c1cccc(Cl)c1Cl.[K+]` [Compound 1.042], the “percentage damage caused … ECHCG” value in experiment [1] is given as 2 (2=21-40%); in experiment [6], 1 (1=0-20%). In addition, in the experiment on Setaria faberi (SETFA) [2], the “percentage damage caused … SETFA” value is recorded as 3 (3=41-60%). The “percentage damage caused … IPOHE” value in experiment [3] was 4 (4=61-80%); in experiment [8] it was 5 (5=81-100%). Besides, the “percentage damage caused … SOLNI” value with Solanum nigrum (SOLNI) is on record as 4 (4=61-80%). Also, the “percentage damage caused … LOLPE” value is 1 (1=0-20%) with Lolium perenne (LOLPE) [4] and 2 (2=21-40%) in the experiment on Lolium perenne (LOLPE) [9]. For the same molecule, the “percentage damage caused … AMARE” value in experiment [5] is listed as 5 (5=81-100%).
As to `O=C(O)C(F)(F)c1c(Cl)cccc1Cl` [Compound 1.044], the “percentage damage caused … ECHCG” value in [1] and in experiment [6] was 1 (1=0-20%) each time. Besides, the “percentage damage caused … IPOHE” value was 4 (4=61-80%) in [3] and 3 (3=41-60%) in experiment [8]. Further, the “percentage damage caused … AMARE” value is listed as 3 (3=41-60%) in experiment [5] and 2 (2=21-40%) in experiment [10].
As to `O=C(O)C(F)(F)c1cccc(Cl)c1Br` [Compound 1.050], the “percentage damage caused … ECHCG” value in experiment [1] and in experiment [6] was 2 (2=21-40%) throughout. In addition, the “percentage damage caused … IPOHE” value in [3] and in experiment [8] was 5 (5=81-100%) throughout. For the same molecule, the “percentage damage caused … AMARE” value in experiment [5] and in experiment [10] was 5 (5=81-100%) each time.
On to `O=C(O)C(F)(F)c1ccc(F)c(Cl)c1F` [Compound 1.051], for which the “percentage damage caused … ECHCG” value in experiment [1] and in [6] was 1 (1=0-20%) each time. In addition, the “percentage damage caused … IPOHE” value is 4 (4=61-80%) in experiment [3] and 5 (5=81-100%) in [8]. The “percentage damage caused … AMARE” value is given as 5 (5=81-100%) in [5] and 3 (3=41-60%) in [10].
Consider `Cc1c(Cl)cccc1C(F)(F)C(=O)O` [Compound 1.058], for which the “percentage damage caused … ECHCG” value in experiment [1] and in experiment [6] was 3 (3=41-60%) in each case. Further, the “percentage damage caused … IPOHE” value in [3] and in [8] was 5 (5=81-100%) in each case. Further, the “percentage damage caused … AMARE” value in experiment [5] and in experiment [10] was 5 (5=81-100%) each time.
Turning to `O=C(O)C(F)(F)c1cccc(C(F)(F)F)c1Cl` [Compound 1.059], the “percentage damage caused … ECHCG” value in experiment [1] is given as 3 (3=41-60%); in experiment [6], 1 (1=0-20%). Further, the “percentage damage caused … IPOHE” value in [3] and in experiment [8] was 5 (5=81-100%) each time. The “percentage damage caused … AMARE” value was 5 (5=81-100%) in [5] and 1 (1=0-20%) in experiment [10].
`O=C(O)C(F)(F)c1cccc(Cl)c1C(F)(F)F` [Compound 1.060]: the “percentage damage caused … ECHCG” value in experiment [1] and in experiment [6] was 1 (1=0-20%) throughout. The “percentage damage caused … IPOHE” value was 5 (5=81-100%) in experiment [3] and 3 (3=41-60%) in [8]. Moreover, the “percentage damage caused … AMARE” value in experiment [5] and in [10] was 5 (5=81-100%) throughout.
Consider `Cc1cccc(C(F)(F)C(=O)O)c1F.N` [Compound 1.061], for which the “percentage damage caused … ECHCG” value in experiment [1] and in experiment [6] was 1 (1=0-20%) throughout. The “percentage damage caused … IPOHE” value is given as 3 (3=41-60%) in [3] and 1 (1=0-20%) in experiment [8]. Besides, the “percentage damage caused … AMARE” value in [5] is on record as 1 (1=0-20%); in [10], 3 (3=41-60%).
For the molecule `Cc1cccc(C(F)(F)C(=O)O)c1C(F)(F)F.N` [Compound 1.062], the “percentage damage caused … ECHCG” value in [1] and in experiment [6] was 1 (1=0-20%) throughout. Also, the “percentage damage caused … IPOHE” value in [3] and in experiment [8] was 3 (3=41-60%) each time. Besides, the “percentage damage caused … AMARE” value in [5] is 4 (4=61-80%); in experiment [10] it was 3 (3=41-60%).
As to `Cc1ccc(Cl)c(Cl)c1C(F)(F)C(=O)O.N` [Compound 1.063], the “percentage damage caused … ECHCG” value in experiment [1] and in experiment [6] was 1 (1=0-20%) throughout. Also, the entries for the “percentage damage caused … IPOHE” value in experiment [3] and in experiment [8] were 3 (3=41-60%) and 1 (1=0-20%), respectively. The “percentage damage caused … AMARE” value in [5] is given as 4 (4=61-80%); in [10], 1 (1=0-20%).
As for `Cc1c(F)cccc1C(F)(F)C(=O)O` [Compound 1.075], the “percentage damage caused … ECHCG” value in experiment [1] and in experiment [6] was 1 (1=0-20%) throughout. The figures for the “percentage damage caused … IPOHE” value in experiment [3] and in experiment [8] were 4 (4=61-80%) and 3 (3=41-60%), respectively. The “percentage damage caused … AMARE” value in [5] is 5 (5=81-100%); in experiment [10], 3 (3=41-60%).
For `Cc1c(Cl)ccc(Cl)c1C(F)(F)C(=O)O.N` [Compound 1.084], the “percentage damage caused … ECHCG” value in experiment [1] and in experiment [6] was 1 (1=0-20%) each time. Besides, the “percentage damage caused … IPOHE” value is recorded as 4 (4=61-80%) in experiment [3] and 1 (1=0-20%) in [8]. The “percentage damage caused … AMARE” value in experiment [5] and in experiment [10] was 2 (2=21-40%) each time.
